From article PMC5106240 (Drug Design, Development and Therapy, 2016)

Tests used:
Format in all cases: in vivo, Wistar rats
[1] = test system: MES-induced convulsions; assay: MES-induced seizure model; details: rats, 10 mg/kg IP, vs saline-treated group
[2] = test system: PTZ-induced convulsions; assay: PTZ-induced seizure model; details: rats
[3] = test system: STR-induced convulsions; assay: STR-induced seizure model; details: rats, 10, 20, 30 minutes observation
[4] = 10 mg/kg IP, 30 minutes before PTZ 60 mg/kg IP, 10, 20, 30 minutes observation

| Structure (SMILES) | Protective effect on MES-induced convulsions (duration of THLE) [1] | Protective effect on PTZ-induced convulsions (convulsion score) [2, 4] | Protective effect on PTZ-induced convulsions (convulsion score) ([2]; 10 and 15 mg/kg IP, 10, 20, 30 minutes) | Protective effect on PTZ-induced convulsions (convulsion score) ([2]; 100 mg/kg IP, 10, 20, 30 minutes observation) | Protective effect on STR-induced convulsions (convulsion score) ([3]; 300 mg/kg IP) | Protective effect on STR-induced convulsions (convulsion score) ([3]; 10 mg/kg IP, 30 minutes before STR 3.5 mg/kg IP) |
| --- | --- | --- | --- | --- | --- | --- |
| O=C1NC(=O)C(c2ccccc2)(c2ccc(OCCCN3CCCCC3)cc2)N1 (centres unmarked) [Compound 6, 5-Phenyl-5-(4-(3-(piperidin-1-yl)propoxy)phenyl) imidazolidine-2,4-dione] | failed to provide significant protection | full protection | significant and full protective effect |  |  |  |
| CCCC(CCC)C(=O)O [VPA, valproic acid] |  |  |  | significant protection | significant protection |  |
| Clc1ccc(CCCOCCCN2CCCCC2)cc1 [PIT, pitolisant] | moderately protected | failed to provide protection |  |  |  | failed to provide protection |
| O=C1NC(=O)C(c2ccccc2)(c2ccccc2)N1 [PHT, Phenytoin] | fully |  |  |  |  |  |
| C[C@@H](N)Cc1cnc[nH]1 [RAMH, R-(α)-methyl-histamine] | did not affect MES-induced seizures | did not affect convulsion score |  |  |  |  |
